From patent US10273226B2, “Pyrazolyl-heteroarylamides as pesticides” (Bayer Animal Health GmbH, priority 2014, dated 2019)

Assays:
Type in all cases: in vivo
Boophilus microplus = Boophilus microplus injection test; conditions: application rate 20 μg/animal; injection into abdomen; assessed after 7 days
Procedure: Boophilus microplus—Injection Test
(§1) Solvent: dimethyl sulphoxide
To produce an appropriate active ingredient formulation, 10 mg of active ingredient are mixed with 0.5 ml of solvent and the concentrate is diluted with solvent to the desired concentration.
1 μl of the active ingredient solution is injected into the abdomen of 5 engorged adult female cattle ticks (Boophilus microplus). The animals are transferred into dishes and kept in a climate-controlled room.
Efficacy is assessed after 7 days by laying of fertile eggs. Eggs which are not visibly fertile are stored in a climate-controlled cabinet until the larvae hatch after about 42 days. An efficacy of 100% means that none of the ticks has laid any fertile eggs; 0% means that all the eggs are fertile.

Tetranychus urticae = Tetranychus urticae spray test, OP-resistant; conditions: application rate 100 g/ha; after 6 days
Procedure: Tetranychus urticae—Spray Test, OP-Resistant
(§2) To produce an appropriate active ingredient formulation, 1 part by weight of active ingredient is dissolved using the specified parts by weight of solvent and made up with water containing an emulsifier concentration of 1000 ppm until the desired concentration is attained. To produce further test concentrations, the preparation is diluted with emulsifier-containing water.
Discs of bean leaves (Phaseolus vulgaris) infested by all stages of the greenhouse red spider mite (Tetranychus urticae) are sprayed with an active ingredient formulation of the desired concentration.
After 6 days, efficacy in % is determined. 100% means that all the spider mites have been killed; 0% means that none of the spider mites have been killed.

Ctenocephalides felis = Ctenocephalides felis oral test; conditions: application rate 100 ppm in citrated cattle blood; after 2 days
Procedure: Ctenocephalides felis—Oral Test
as §1
For the purpose of producing an appropriate active ingredient formulation, 10 mg of active ingredient are mixed with 0.5 ml of dimethyl sulphoxide. Dilution with citrated cattle blood gives the desired concentration.
About 20 unfed adult cat fleas (Ctenocephalides felis) are placed into a chamber which is closed at the top and bottom with gauze. A metal cylinder whose bottom end is closed with parafilm is placed onto the chamber. The cylinder contains the blood/active ingredient preparation, which can be imbibed by the fleas through the parafilm membrane.
After 2 days, the kill in % is determined. 100% means that all of the fleas have been killed; 0% means that none of the fleas have been killed.

Lucilia cuprina = Lucilia cuprina test; conditions: application rate 100 ppm; L1 larvae; after 2 days
Procedure: as §1
To produce an appropriate active ingredient formulation, 10 mg of active ingredient are mixed with 0.5 ml of dimethyl sulphoxide, and the concentrate is diluted with water to the desired concentration.
About 20 L1 larvae of the Australian sheep blowfly (Lucilia cuprina) are transferred into a test vessel containing minced horsemeat and the active ingredient preparation of the desired concentration.
After 2 days, the kill in % is determined. 100% means that all the larvae have been killed and 0% means that none of the larvae have been killed.

Phaedon cochleariae = Phaedon cochleariae spray test; conditions: application rate 100 g/ha; larvae; after 7 days
Procedure: Phaedon cochleariae—Spray Test
as §2
Discs of Chinese cabbage leaves (Brassica pekinensis) are sprayed with an active ingredient formulation of the desired concentration and, after drying, populated with larvae of the mustard beetle (Phaedon cochleariae).
After 7 days, efficacy in % is determined. 100% means that all the beetle larvae have been killed; 0% means that no beetle larvae have been killed.

Spodoptera frugiperda = Spodoptera frugiperda spray test; conditions: caterpillars, after 7 days
Procedure: Spodoptera frugiperda—Spray Test
as §2
Leaf discs of maize (Zea mays) are sprayed with an active ingredient formulation of the desired concentration and, after drying, populated with caterpillars of the armyworm (Spodoptera frugiperda).
After 7 days, efficacy in % is determined. 100% means that all the caterpillars have been killed; 0% means that no caterpillars have been killed.

Rhipicephalus sanguineus = Rhipicephalus sanguineus in vitro contact test with adult brown dog ticks; conditions: after 48 h, ticks dead or moribund
Procedure: Rhipicephalus sanguineus—In Vitro Contact Tests with Adult Brown Dog Ticks
For the coating of the test tubes, 9 mg of active ingredient are first dissolved in 1 ml of acetone p.a. and then diluted to the desired concentration with acetone p.a. 250 μl of the solution are distributed homogeneously on the inner walls and base of a 25 ml test tube by turning and rocking on an orbital shaker (rocking rotation at 30 rpm for 2 h). With 900 ppm active ingredient solution and internal surface 44.7 cm^2, given homogeneous distribution, an area-based dose of 5 μg/cm^2 is achieved.
After the solvent has evaporated off, the tubes are populated with 5-10 adult dog ticks (Rhipicephalus sanguineus), sealed with a perforated plastic lid and incubated in a horizontal position in the dark at room temperature and ambient humidity. After 48 h, efficacy is determined. To this end, the ticks are knocked to the floor of the tube and incubated on a hotplate at 45-50° C. for not more than 5 min. Ticks which remain motionless on the floor or move in such an uncoordinated manner that they are unable to deliberately avoid the heat by climbing upwards are considered to be dead or moribund.
An efficacy of 100% means that all the ticks were dead or moribund. 0% efficacy means that none of the ticks had been harmed.

[1] = application rate 5 μg/cm^2 (500 g/ha)

CC(C(=O)Nc1cc(-c2cnn(-c3c(C(F)(F)F)c(C(F)(F)C(F)(F)F)nn3C)c2)ccc1F)c1ccccc1 (racemic) [Example 1-108]
efficacy (laying of fertile eggs) (Boophilus microplus): 100% | efficacy (Tetranychus urticae): 100%

Cn1nc(C(F)(F)C(F)(F)F)c(C(F)(F)F)c1-n1cc(-c2ccc(F)c(NC(=O)C(c3ccccc3)C3CCCC3)c2)cn1 (racemic) [Example 1-109]
efficacy (laying of fertile eggs) (Boophilus microplus): 80%

CC(Oc1ccccc1)C(=O)Nc1cc(-c2cnn(-c3c(C(F)(F)F)c(C(F)(F)C(F)(F)F)nn3C)c2)ccc1F (racemic) [Example 1-123]
efficacy (laying of fertile eggs) (Boophilus microplus): 100% | efficacy (kill in %) (Ctenocephalides felis): 90%

CCC(C(=O)Nc1cc(-c2cnn(-c3c(C(F)(F)F)c(C(F)(F)C(F)(F)F)nn3C)c2)ccc1F)c1ccccc1 (racemic) [Example 1-124]
efficacy (laying of fertile eggs) (Boophilus microplus): 100%

Cn1nc(C(F)(F)C(F)(F)F)c(C(F)(F)F)c1-n1cc(-c2cccc(NC(=O)c3ncccc3Cl)c2)cn1 [Example 1-005]
efficacy (laying of fertile eggs) (Boophilus microplus): 100% | efficacy (kill in %) (Ctenocephalides felis): 100% | efficacy (kill in %) (Lucilia cuprina): 100% | efficacy (Phaedon cochleariae): 100% | efficacy (Spodoptera frugiperda; application rate 100 g/ha): 100%

CCC(=O)Nc1cccc(-c2cnn(-c3c(C(F)(F)F)c(C(F)(F)C(F)(F)F)nn3C)c2)c1 [Example 1-008]
efficacy (Rhipicephalus sanguineus; [1]): 100% | efficacy (laying of fertile eggs) (Boophilus microplus): 100% | efficacy (kill in %) (Ctenocephalides felis): 100% | efficacy (kill in %) (Lucilia cuprina): 100%

Cn1nc(C(F)(F)C(F)(F)F)c(C(F)(F)F)c1-n1cc(-c2cccc(NC(=O)c3ncccc3Cl)c2F)cn1 [Example 1-020]
efficacy (laying of fertile eggs) (Boophilus microplus): 100% | efficacy (kill in %) (Ctenocephalides felis): 95% | efficacy (kill in %) (Lucilia cuprina): 90%

Cn1nc(C(F)(F)C(F)(F)F)c(C(F)(F)F)c1-n1cc(-c2ccc(Cl)c(NC(=O)c3ncccc3Cl)c2)cn1 [Example 1-021]
efficacy (kill in %) (Ctenocephalides felis): 80%

Cn1nc(C(F)(F)C(F)(F)F)c(C(F)(F)F)c1-n1cc(-c2cccc(NC(=O)C3(Cl)CC3)c2)cn1 [Example 1-030]
efficacy (Rhipicephalus sanguineus; [1]): 80% | efficacy (laying of fertile eggs) (Boophilus microplus): 100% | efficacy (kill in %) (Ctenocephalides felis): 100% | efficacy (kill in %) (Lucilia cuprina): 100% | efficacy (Spodoptera frugiperda; application rate 500 g/ha): 100%

Cn1nc(C(F)(F)C(F)(F)F)c(C(F)(F)F)c1-n1cc(-c2ccc(F)c(NC(=O)c3ccc(F)c(C(F)(F)F)c3)c2)cn1 [Example 1-050]
efficacy (laying of fertile eggs) (Boophilus microplus): 100% | efficacy (kill in %) (Lucilia cuprina): 100% | efficacy (Phaedon cochleariae): 100%

Cn1nc(C(F)(F)C(F)(F)F)c(C(F)(F)F)c1-n1cc(-c2ccc(F)c(NC(=O)C3(C)CCCCC3)c2)cn1 [Example 1-053]
efficacy (Tetranychus urticae): 100%

Cn1nc(C(F)(F)C(F)(F)F)c(C(F)(F)F)c1-n1cc(-c2ccc(F)c(NC(=O)c3cccc(C(F)(F)F)c3)c2)cn1 [Example 1-057]
efficacy (laying of fertile eggs) (Boophilus microplus): 100% | efficacy (kill in %) (Ctenocephalides felis): 95% | efficacy (kill in %) (Lucilia cuprina): 100% | efficacy (Spodoptera frugiperda; application rate 100 g/ha): 83%

Cc1c(C(=O)Nc2cc(-c3cnn(-c4c(C(F)(F)F)c(C(F)(F)C(F)(F)F)nn4C)c3)ccc2F)oc2ccccc12 [Example 1-059]
efficacy (laying of fertile eggs) (Boophilus microplus): 100%

COCCC(=O)Nc1cc(-c2cnn(-c3c(C(F)(F)F)c(C(F)(F)C(F)(F)F)nn3C)c2)ccc1F [Example 1-061]
efficacy (Rhipicephalus sanguineus; [1]): 80% | efficacy (laying of fertile eggs) (Boophilus microplus): 100% | efficacy (kill in %) (Ctenocephalides felis): 100%

Cc1cc(C(F)F)n2nc(C(=O)Nc3cc(-c4cnn(-c5c(C(F)(F)F)c(C(F)(F)C(F)(F)F)nn5C)c4)ccc3F)nc2n1 [Example 1-062]
efficacy (laying of fertile eggs) (Boophilus microplus): 100% | efficacy (kill in %) (Ctenocephalides felis): 100% | efficacy (kill in %) (Lucilia cuprina): 100%

Cn1nc(C(F)(F)C(F)(F)F)c(C(F)(F)F)c1-n1cc(-c2ccc(F)c(NC(=O)c3cccc(F)c3F)c2)cn1 [Example 1-070]
efficacy (Rhipicephalus sanguineus; [1]): 80% | efficacy (laying of fertile eggs) (Boophilus microplus): 100% | efficacy (kill in %) (Ctenocephalides felis): 100% | efficacy (kill in %) (Lucilia cuprina): 100%

Cn1nc(C(F)(F)C(F)(F)F)c(C(F)(F)F)c1-n1cc(-c2ccc(F)c(NC(=O)c3ccccc3OC(F)(F)F)c2)cn1 [Example 1-074]
efficacy (laying of fertile eggs) (Boophilus microplus): 90%

Cn1nc(C(F)(F)C(F)(F)F)c(C(F)(F)F)c1-n1cc(-c2ccc(F)c(NC(=O)CC(C)(C)C)c2)cn1 [Example 1-079]
efficacy (laying of fertile eggs) (Boophilus microplus): 100% | efficacy (kill in %) (Ctenocephalides felis): 95% | efficacy (kill in %) (Lucilia cuprina): 100%

CCOCC(C)(C)C(=O)Nc1cc(-c2cnn(-c3c(C(F)(F)F)c(C(F)(F)C(F)(F)F)nn3C)c2)ccc1F [Example 1-082]
efficacy (laying of fertile eggs) (Boophilus microplus): 100% | efficacy (kill in %) (Ctenocephalides felis): 90%

Cc1ccc(C(=O)Nc2cc(-c3cnn(-c4c(C(F)(F)F)c(C(F)(F)C(F)(F)F)nn4C)c3)ccc2F)cc1C [Example 1-090]
efficacy (Rhipicephalus sanguineus; [1]): 100% | efficacy (Phaedon cochleariae): 100%

Cn1nc(C(F)(F)C(F)(F)F)c(C(F)(F)F)c1-n1cc(-c2ccc(F)c(NC(=O)CSc3ccccc3)c2)cn1 [Example 1-107]
efficacy (laying of fertile eggs) (Boophilus microplus): 100%

Cc1ccc(C2(C(=O)Nc3cc(-c4cnn(-c5c(C(F)(F)F)c(C(F)(F)C(F)(F)F)nn5C)c4)ccc3F)CCCCC2)cc1 [Example 1-111]
efficacy (laying of fertile eggs) (Boophilus microplus): 80%

Cc1cn(CC(=O)Nc2cc(-c3cnn(-c4c(C(F)(F)F)c(C(F)(F)C(F)(F)F)nn4C)c3)ccc2F)nc1C(F)(F)F [Example 1-112]
efficacy (laying of fertile eggs) (Boophilus microplus): 95%

Cn1nc(C(F)(F)C(F)(F)F)c(C(F)(F)F)c1-n1cc(-c2ccc(F)c(NC(=O)COCc3ccccc3)c2)cn1 [Example 1-114]
efficacy (laying of fertile eggs) (Boophilus microplus): 100%

Cn1nc(C(F)(F)C(F)(F)F)c(C(F)(F)F)c1-n1cc(-c2ccc(F)c(NC(=O)C3(c4ccc(Cl)cc4)CCC3)c2)cn1 [Example 1-115]
efficacy (laying of fertile eggs) (Boophilus microplus): 100% | efficacy (kill in %) (Ctenocephalides felis): 90% | efficacy (kill in %) (Lucilia cuprina): 80%

Cn1nc(C(F)(F)C(F)(F)F)c(C(F)(F)F)c1-n1cc(-c2ccc(F)c(NC(=O)Cc3cccc(C(F)(F)F)c3)c2)cn1 [Example 1-116]
efficacy (laying of fertile eggs) (Boophilus microplus): 100% | efficacy (kill in %) (Ctenocephalides felis): 100% | efficacy (kill in %) (Lucilia cuprina): 100% | efficacy (Phaedon cochleariae): 100% | efficacy (Spodoptera frugiperda; application rate 100 g/ha): 83%

Cn1nc(C(F)(F)C(F)(F)F)c(C(F)(F)F)c1-n1cc(-c2ccc(F)c(NC(=O)Cc3cccs3)c2)cn1 [Example 1-117]
efficacy (Rhipicephalus sanguineus; [1]): 100% | efficacy (laying of fertile eggs) (Boophilus microplus): 100% | efficacy (kill in %) (Ctenocephalides felis): 100% | efficacy (kill in %) (Lucilia cuprina): 100% | efficacy (Spodoptera frugiperda; application rate 100 g/ha): 100%

Cn1nc(C(F)(F)C(F)(F)F)c(C(F)(F)F)c1-n1cc(-c2ccc(F)c(NC(=O)CCc3ccccc3)c2)cn1 [Example 1-125]
efficacy (laying of fertile eggs) (Boophilus microplus): 100%

Cn1nc(C(F)(F)C(F)(F)F)c(C(F)(F)F)c1-n1cc(-c2cnc(Cl)c(NC(=O)c3ncccc3Cl)c2)cn1 [Example 2-002]
efficacy (laying of fertile eggs) (Boophilus microplus): 100%

COc1cc(C(=O)Nc2cc(-c3cnn(-c4c(C(F)(F)F)c(C(F)(F)C(F)(F)F)nn4C)c3)cnc2Cl)ccc1F [Example 2-007]
efficacy (Rhipicephalus sanguineus; application rate 1 μg/cm^2 (100 g/ha)): 80% | efficacy (laying of fertile eggs) (Boophilus microplus): 100% | efficacy (kill in %) (Ctenocephalides felis): 100% | efficacy (kill in %) (Lucilia cuprina): 100% | efficacy (Phaedon cochleariae): 100%
